We go through 1 substance from patent US12365925B2, “Method and system for treatment of microorganisms during propagation, conditioning, fermentation, and preservation using ethyl lauroyl arginate and selected additives” (KEMIN INDUSTRIES, INC., priority 2015, dated 2025).

The subject of series [1] is Culture Dry Yeast (CDY) corn-mash fermentations. In words: HPLC of corn-mash fermentations challenged with bacterial contamination and LAE treatments. Type of series: cell-based. As to conditions: CDY + treatment + Bacteria; average. From the text: In support of validating LAE, High Performance Liquid Chromatography (HPLC) was used in a first phase of testing to evaluate the effects of LAE applications at various concentrations in order to determine the minimal inhibitory concentrations (MIC) of the LAE antimicrobial on a panel of industry-relevant bacteria. Refer to Tables 1 and 2 below, as well as FIGS. 2A-2D. FIG. 2A provides a visual depiction of test data relating to ethanol output from corn-mash fermentations treated with varying concentrations of LAE, with the results being the averages of triplicate samples (within one standard deviation). FIG. 2B provides a visual depiction of test data relating to ethanol output from corn-mash fermentations challenged with bacterial contamination and treated with 35 ppm LAE or 5 ppm Lactocide V (Virginamycin) (at the same time as the introduction of the bacteria), with the results being the averages of triplicate samples (within one standard deviation). FIG. 2C provides a visual depiction of test data relating to ethanol output from corn-mash fermentations challenged with bacterial contamination and treated with 50 ppm LAE or 5 ppm Lactocide V (Virginamycin) (at the same time as the introduction of the bacteria), with the results being the averages of triplicate samples (within one standard deviation). FIG. 2D provides a visual depiction of test data relating to colony-forming units (CFUs) of commercial yeast preparation with bacterial-contamination growth under batch-propagation conditions (molasses) with the addition of 0 ppm, 25 ppm, or 50 ppm LAE. One of the primary goals with the first phase of the LAE studies was to determine whether the addition of LAE would adversely affect ethanol production, and it was determined that LAE not only was not harmful to ethanol-production processes, but that unwanted microbe growth was inhibited using LAE enough to allow foregoing the use of antibiotics. Part of this analysis was to determine whether the introduction of LAE into the ethanol-production process would adversely impact the stillage byproducts used in animal feed, and for that matter whether the further use of LAE as a preservative in such byproducts would be safe for consumption by agricultural livestock. […] The testing serving as a basis for this conclusion assumed a maximum residual concentration of the LAE of 173 ppm in the distiller's grains. The safety of distiller's grains with LAE concentrations above 173 ppm was not fully evaluated.

The test system of series [2] is Weisella confusa. As to conditions: fermentation mixture; cited from earlier work.
Series [3] relates to fermentation. As to conditions: fermentation mixture; cited from earlier work.

In the case of Virginiamycin [Lactocide], in series [1], the “Acetic Acid” value was found to be 0.14 % wt/vol, the DP3 came out at 0.15 % wt/vol, the DP4 is reported as 0.78 % wt/vol and the Ethanol amounted to 13.36 % wt/vol. For the same substance, in series [1], the Glucose is on record as 0.12 % wt/vol, the Glycerol was 1.59 % wt/vol, the “Lactic Acid” value worked out at 0.27 % wt/vol and the Maltose turned out to be 0.48 % wt/vol. In series [2], the “concentration required to inhibit growth” value was “over 25 mg/L”. For the same substance, in series [3], the “concentration that will suppress fermentation” value is “over 6 mg/L”.
